Key:
[1] = Stability assessment of compounds at room temperature under 92.5% humidity (LC-MS); format: physicochemical; conditions: 92.5% humidity (open), after 5 days
Description: Taking the compound of Example 21 and KM-001-E1 in WO2021154966A1 as examples, the stability thereof was compared:
Compound of Example 21 and KM-001-E1 were accurately weighed and placed in penicillin bottles, and placed at room temperature under 92.5% humidity (open) conditions for 5-10 days to investigate the stability of the compounds.
• instrument: Thermo U3000-ISQEC • column: Xtimate UHPLC C18 1.8 μm 4.6*50 mm • Column temperature: 35° C. • wavelength: 210 nm, 254 nm • mobile phase A: 0.05% formic acid aqueous solution; mobile phase B: 0.05% formic acid acetonitrile; gradient: 30% B 0-1.2 min, 95% B 1.2-3.3 min, 30% B 3.3-4.5 min;
Analyzing the degradation impurities of each compound under 92.5% humidity conditions using LC-MS: The main impurities in Example 21 had m/z 427.17, with a retention time of 2.55 minutes. After being left for 10 days, the peak area proportion was only 0.3%; The main impurities in KM-001-E1 has m/z=431.14 and m/z=415.16, with retention times of 2.31 minutes and 2.64 minutes, respectively. […] Based on LC-MS and NMR data analysis, it can be inferred that the main impurities produced in Example 21 are ketones, while the main impurities produced in KM-001-E1 are aldehydes and carboxylic acids.

hTRPV3 = target: T1, hTRPV3 (Homo sapiens, UniProt Q8NET8); assay: Whole cell patch clamp inhibition rate test on HEK-293 cells instantaneously expressing TRPV3; format: cell-based; conditions: HEK293; hTRPV3, single concentration 0.3 μM
T1 construct: expressed in transfected cells; host or cells: HEK-293
T1 sequence (Q8NET8 1-790): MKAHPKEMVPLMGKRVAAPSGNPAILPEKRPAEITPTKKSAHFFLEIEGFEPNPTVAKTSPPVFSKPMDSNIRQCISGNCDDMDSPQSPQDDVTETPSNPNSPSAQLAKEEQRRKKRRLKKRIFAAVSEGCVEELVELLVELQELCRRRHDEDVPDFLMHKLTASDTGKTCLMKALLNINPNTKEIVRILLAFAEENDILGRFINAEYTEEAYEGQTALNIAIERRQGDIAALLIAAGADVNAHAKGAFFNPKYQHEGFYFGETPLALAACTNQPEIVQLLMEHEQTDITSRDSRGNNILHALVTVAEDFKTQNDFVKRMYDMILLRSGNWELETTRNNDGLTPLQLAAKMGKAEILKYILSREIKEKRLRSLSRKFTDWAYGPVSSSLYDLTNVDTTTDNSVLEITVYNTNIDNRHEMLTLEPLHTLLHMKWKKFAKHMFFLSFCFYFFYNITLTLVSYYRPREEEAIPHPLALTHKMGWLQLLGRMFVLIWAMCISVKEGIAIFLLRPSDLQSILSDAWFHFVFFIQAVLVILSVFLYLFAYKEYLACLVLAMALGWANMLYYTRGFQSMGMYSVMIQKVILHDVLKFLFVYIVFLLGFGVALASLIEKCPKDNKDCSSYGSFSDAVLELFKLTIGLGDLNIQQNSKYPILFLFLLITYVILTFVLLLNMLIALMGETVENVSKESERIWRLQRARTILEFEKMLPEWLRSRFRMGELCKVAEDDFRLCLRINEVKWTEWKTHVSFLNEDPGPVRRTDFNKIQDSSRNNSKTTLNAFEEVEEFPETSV
Method in brief: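 HEK-293 cells transiently transfected with TRPV3, recorded next-but-one day by whole-cell patch clamp at room temperature: holding −80 mV, ramp −100 to 100 mV over 100 ms every 5 s, peak current monitored. Ascending concentrations perfused, 5 min each; each cell its own control, at least two cells per concentration.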

| peak area proportion of main impurity (m/z=415.16) [1] [%] | peak area proportion of main impurity (m/z=431.14) [1] [%] | inhibition at 0.3 µM (hTRPV3) [%] | Compound |
| --- | --- | --- | --- |
| 2.43 | 2.48 |  | O=C(c1ccc(F)cn1)N1CC[C@H](c2ccc(-c3ccccc3C3CC3)cc2CO)C1 [KM-001-E1] |
|  |  | 70 to 100 | CC(C)c1ccccc1Sc1ccc2c(c1)C(O)CC21CCN(C(=O)c2ccc(F)cn2)C1 (stereo not drawn) [Example 106, (5-fluoropyridin-2-yl)(3-hydroxy-5-((2-isopropylphenyl)thio)-2,3-dihydrospiro[indene-1,3′-pyrrolidine]-1′-yl) ketone] |
